Experimental data: US20240132464A1, “HETEROCYCLIC COMPOUNDS AS E3 LIGASE INHIBITORS” (Accutar Biotechnology Inc., priority 2022, published 2024)

Molecular target: T1, GID4 (Uniprot ID: Q81VV7, residues 124-289) (Homo sapiens, UniProt Q8IVV7)
T1 construct: GID4 (Uniprot ID: Q81VV7, residues 124-289)
T1 sequence (Q8IVV7 124-289): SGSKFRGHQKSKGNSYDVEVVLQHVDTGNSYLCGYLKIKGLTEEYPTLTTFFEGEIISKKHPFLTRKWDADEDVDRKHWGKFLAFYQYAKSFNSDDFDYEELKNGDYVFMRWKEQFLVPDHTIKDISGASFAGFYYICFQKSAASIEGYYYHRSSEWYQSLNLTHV
Experiment: GID4 competitive binding assay (AlphaScreen, GID4/degron peptide PGLW)
Details: 24 nM GID4, 48 nM biotinylated degron peptide PGLW, 4° C., read-out: IC50 (Inhibition of GID4/Degron binding by test compounds)
How it was run: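 His-tagged human GID4 (residues 124-289, 24 nM) pre-incubated 2 h at 4 °C with 48 nM biotinylated PGLW peptide and compound in HEPES pH 7.5 buffer, 2% DMSO (final). AlphaScreen streptavidin donor/Ni-NTA acceptor beads added for 1 h; IC50 from nonlinear fit of % inhibition versus DMSO.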

Row | IC50 | SMILES
1 | > 5000 nM | CNC(=O)c1ccc2nnc(C3CCCN(c4cc(C(C)C)nc(N)n4)C3)n2c1 (centres unmarked) [Compound 166, 3-(1-(2-amino-6-isopropylpyrimidin-4-yl)piperidin-3-yl)-N-methyl-[1,2,4]triazolo[4,3-a]pyridine-6-carboxamide]
2 | < 500 nM | CNc1nc(N)cc(N2CCNC(c3ccccc3Br)C2)n1 (racemic) [Compound 114, (S/R)-6-(3-(2-bromophenyl)piperazin-1-yl)-N2-methylpyrimidine-2,4-diamine]
3 | < 500 nM | CC(C)c1cc(N2CCCC(c3cnn4ccccc34)C2)nc(N)n1 (centres unmarked) [Compound 240, 4-isopropyl-6-(3-(pyrazolo[1,5-a]pyridin-3-yl)piperidin-1-yl)pyrimidin-2-amine]
4 | 500 to 5000 nM | Nc1nc(N2CCO[C@@H](c3ccccc3Br)C2)c2[nH]ccc2n1 (racemic) [Compound 47, (S/R)-4-(2-(2-bromophenyl)morpholino)-5H-pyrrolo[3,2-d]pyrimidin-2-amine]
5 | < 500 nM | CCc1cc(N2CCNC(c3cnc4ccccn34)C2)nc(N)n1 (single isomer, unassigned) [Compound 28, (S/R)-4-ethyl-6-(3-(imidazo[1,2-a]pyridin-3-yl)piperazin-1-yl)pyrimidin-2-amine]
6 | > 5000 nM | CNc1cc(N2CCCC(c3ncc4ccccn34)C2)nc(N)n1 (centres unmarked) [Compound 94, 6-(3-(imidazo[1,5-a]pyridin-3-yl)piperidin-1-yl)-N4-methylpyrimidine-2,4-diamine]
7 | 500 to 5000 nM | CNc1nc(N)cc(N2CCCC(c3cnc4ccccn34)C2)n1 (racemic) [Compound 118, (R/S)-6-(3-(imidazo[1,2-a]pyridin-3-yl)piperidin-1-yl)-N2-methylpyrimidine-2,4-diamine]
8 | 500 to 5000 nM | Nc1nc2c(c(N3CCNC(c4nnc[nH]4)C3)n1)CSC2 (centres unmarked) [Compound 185, 4-(3-(4H-1,2,4-triazol-3-yl)piperazin-1-yl)-5,7-dihydrothieno[3,4-d]pyrimidin-2-amine]
9 | 500 to 5000 nM | Cn1nccc1-c1cc(N2CC3CC(C2)N3)nc2c(-c3cc[nH]n3)nccc12 [Compound 365, 3-(4-(1-methyl-1H-pyrazol-5-yl)-8-(1H-pyrazol-3-yl)-1,7-naphthyridin-2-yl)-3,6-diazabicyclo[3.1.1]heptane]
10 | < 500 nM | Nc1nc(NC2CC2)cc(N2CCN(CCO)[C@@H](c3ccccc3Br)C2)n1 (racemic) [Compound 45, (S/R)-2-(4-(2-amino-6-(cyclopropylamino)pyrimidin-4-yl)-2-(2-bromophenyl)piperazin-1-yl)ethan-1-ol]
11 | 500 to 5000 nM | O=C1NCCc2cc(-c3cccc(C(=O)N4CCCC4)c3)ccc21 [Compound 278, 6-(3-(pyrrolidine-1-carbonyl)phenyl)-3,4-dihydroisoquinolin-1(2H)-one]
12 | 500 to 5000 nM | Nc1nc(NC2CC2)cc(N2CCCC(c3cnc4ccccn34)C2)n1 (centres unmarked) [Compound 107, N4-cyclopropyl-6-(3-(imidazo[1,2-a]pyridin-3-yl)piperidin-1-yl)pyrimidine-2,4-diamine]
13 | > 5000 nM | CC(C)Nc1nc(C(C)C)cc(N2CCNC(c3ccccc3Br)C2)n1 (single isomer, unassigned) [Compound 150, (S/R)-4-(3-(2-bromophenyl)piperazin-1-yl)-N,6-diisopropylpyrimidin-2-amine]
14 | < 500 nM | CNc1nc(C(C)C)cc(N2CCCC(c3cnc4ccccn34)C2)n1 (centres unmarked) [Compound 134, 4-(3-(imidazo[1,2-a]pyridin-3-yl)piperidin-1-yl)-6-isopropyl-N-methylpyrimidin-2-amine]
15 | > 5000 nM | Nc1nc2c(c(N3CCCC(c4cnc5ccccn45)C3)n1)CCCN2 (centres unmarked) [Compound 88, 4-(3-(imidazo[1,2-a]pyridin-3-yl)piperidin-1-yl)-5,6,7,8-tetrahydropyrido[2,3-d]pyrimidin-2-amine]
16 | < 500 nM | CN(C)CCNC(=O)c1n[nH]c2ccc(-c3ccc4ccnc(N)c4c3)cc12 [Compound 341, 5-(1-aminoisoquinolin-7-yl)-N-(2-(dimethylamino)ethyl)-1H-indazole-3-carboxamide]
17 | < 500 nM | CC(C)c1cc(N2CCNC(c3cnc4ccccn34)C2)c2cc[nH]c2n1 (single isomer, unassigned) [Compound 372, (S/R)-3-(4-(6-isopropyl-1H-pyrrolo[2,3-b]pyridin-4-yl)piperazin-2-yl)imidazo[1,2-a]pyridine]
18 | 500 to 5000 nM | Nc1nc(N2CCNC(c3cnc4ccccn34)C2)c2[nH]ccc2n1 (centres unmarked) [Compound 55, 4-(3-(imidazo[1,2-a]pyridin-3-yl)piperazin-1-yl)-5H-pyrrolo[3,2-d]pyrimidin-2-amine]
19 | > 5000 nM | CN(C)C1CCN(C(=O)c2cccc(-c3ccc4c(=O)[nH]ccc4c3)c2)C1 (centres unmarked) [Compound 350, 6-(3-(3-(dimethylamino)pyrrolidine-1-carbonyl)phenyl)isoquinolin-1(2H)-one]

Row | IC50 | SMILES
20 | > 5000 nM | CC(C)c1cc(N2CCOC(c3cnc4ccccn34)C2)nc(N)n1 (racemic) [Compound 156, (R/S)-4-(2-(imidazo[1,2-a]pyridin-3-yl)morpholino)-6-isopropylpyrimidin-2-amine]
21 | 500 to 5000 nM | CC(C)c1cc(N2CCCC(n3c(=O)[nH]c4ccccc43)C2)nc(N)n1 (centres unmarked) [Compound 252, 1-(1-(2-amino-6-isopropylpyrimidin-4-yl)piperidin-3-yl)-1,3-dihydro-2H-benzo[d]imidazol-2-one]
22 | < 500 nM | CCOc1ccc(Br)c(C2CN(c3cc(C(C)C)nc(N)n3)CCN2)c1 (single isomer, unassigned) [Compound 25, (R/S)-4-(3-(2-bromo-5-ethoxyphenyl)piperazin-1-yl)-6-isopropylpyrimidin-2-amine]
23 | 500 to 5000 nM | CC(C)c1cc(N2CCOC(c3ccccc3Br)C2)nc(N)n1 (single isomer, unassigned) [Compound 159, (S/R)-4-(2-(2-bromophenyl)morpholino)-6-isopropylpyrimidin-2-amine]
24 | > 5000 nM | CN1CCN(c2cc(NCC3CC3)nc(N)n2)C[C@@H]1c1ccccc1Br (racemic) [Compound 100, (S/R)-6-(3-(2-bromophenyl)-4-methylpiperazin-1-yl)-N4-(cyclopropylmethyl)pyrimidine-2,4-diamine]
25 | > 5000 nM | Nc1nc2c(c(N3CCNC(c4ccccc4Br)C3)n1)CSC2 (centres unmarked) [Compound 189, 4-(3-(2-bromophenyl)piperazin-1-yl)-5,7-dihydrothieno[3,4-d]pyrimidin-2-amine]
26 | 500 to 5000 nM | CC(C)c1cc(N2CC[C@H](O)[C@@H](c3ccccc3Br)C2)nc(N)n1 (relative stereo) [Compound 223, (3,4-trans)-1-(2-amino-6-isopropylpyrimidin-4-yl)-3-(2-bromophenyl)piperidin-4-ol]
27 | 500 to 5000 nM | CN(C)CCCNC(=O)c1n[nH]c2ccc(-c3ccc4ncnc(N)c4c3)cc12 [Compound 330, 5-(4-aminoquinazolin-6-yl)-N-(3-(dimethylamino)propyl)-1H-indazole-3-carboxamide]
28 | 500 to 5000 nM | Cc1cc(C(=O)NCCCN(C)C)ccc1-c1cc(O)c2ncccc2c1 [Compound 320, N-(3-(dimethylamino)propyl)-4-(8-hydroxyquinolin-6-yl)-3-methylbenzamide]
29 | 500 to 5000 nM | CC(C)c1cc(N2C=C(c3ccccc3Br)CCC2)nc(N)n1 [Compound 227, 4-(5-(2-bromophenyl)-3,4-dihydropyridin-1(2H)-yl)-6-isopropylpyrimidin-2-amine]
30 | > 5000 nM | Nc1nc2c(c(N3CCCC(c4cnc5ccccn45)C3)n1)CSC2 (centres unmarked) [Compound 186, 4-(3-(imidazo[1,2-a]pyridin-3-yl)piperidin-1-yl)-5,7-dihydrothieno[3,4-d]pyrimidin-2-amine]
31 | < 500 nM | CN(C)CCNC(=O)c1cc2cc(-c3ccc4ccnc(N)c4c3)ccc2cn1 [Compound 356, 1′-amino-N-(2-(dimethylamino)ethyl)-[6,7′-biisoquinoline]-3-carboxamide]
32 | 500 to 5000 nM | CC(C)c1cc(N2CCCC(c3cnc4c(F)cc(F)cn34)C2)nc(N)n1 (centres unmarked) [Compound 242, 4-(3-(6,8-difluoroimidazo[1,2-a]pyridin-3-yl)piperidin-1-yl)-6-isopropylpyrimidin-2-amine]
33 | 500 to 5000 nM | CN(C)C(=O)CCC1CCCN(c2nc(N)nc3c2CCCN3)C1 (centres unmarked) [Compound 135, 3-(1-(2-amino-5,6,7,8-tetrahydropyrido[2,3-d]pyrimidin-4-yl)piperidin-3-yl)-N,N-dimethylpropanamide]
34 | < 500 nM | CN1CCCC(CNC(=O)c2ccc(-c3cc(O)c4ncccc4c3)cc2)C1 (centres unmarked) [Compound 290, 4-(8-hydroxyquinolin-6-yl)-N-((1-methylpiperidin-3-yl)methyl)benzamide]
35 | < 500 nM | CC(C)c1cc(N2CCNC(c3cc(C(=O)NCCN(C)C)ccc3Br)C2)nc(N)n1 (racemic) [Compound 21, R or S-3-(4-(2-amino-6-isopropylpyrimidin-4-yl)piperazin-2-yl)-4-bromo-N-(2-(dimethylamino)ethyl)benzamide]
36 | > 5000 nM | Cn1nccc1-c1cc(N2CC3CCC(C2)N3)nc2c(-c3cc[nH]n3)nccc12 [Compound 364, 2-(3,8-diazabicyclo[3.2.1]octan-3-yl)-4-(1-methyl-1H-pyrazol-5-yl)-8-(1H-pyrazol-3-yl)-1,7-naphthyridine]
37 | < 500 nM | CN(C)[C@H]1CC[C@H](NC(=O)c2ccc(-c3cc(O)c4ncccc4c3)cc2)CC1 [Compound 287, N-(trans-4-(dimethylamino)cyclohexyl)-4-(8-hydroxyquinolin-6-yl)benzamide]
38 | 500 to 5000 nM | Nc1nc(NC2CC2)nc(N2CCOC(c3ccccc3Br)C2)n1 (centres unmarked) [Compound 61, 6-(2-(2-bromophenyl)morpholino)-N2-cyclopropyl-1,3,5-triazine-2,4-diamine]
